Laboratory results: ChEMBL document CHEMBL5727699, “Pyrimido-pyridazinone compounds and methods of use thereof” (2020)

Molecular target: Tyrosine-protein kinase JAK2 (Homo sapiens, UniProt O60674)
Assay: Thirteen μL of assay buffer in blank and substrate control wells and 13 μL of Enzyme buffer mix in positive and test wells was added. The reaction mixture was incubated for 30 minutes at RT on a plate shaker. […] The reaction plate was incubated for 60 minutes at RT on a plate shaker. The reaction was stopped by adding 40 mM EDTA (10 μL) in buffer. Ten μL of antibody was added to all the wells.

Tyrosine-protein kinase JAK2, sequence (O60674 whole entry): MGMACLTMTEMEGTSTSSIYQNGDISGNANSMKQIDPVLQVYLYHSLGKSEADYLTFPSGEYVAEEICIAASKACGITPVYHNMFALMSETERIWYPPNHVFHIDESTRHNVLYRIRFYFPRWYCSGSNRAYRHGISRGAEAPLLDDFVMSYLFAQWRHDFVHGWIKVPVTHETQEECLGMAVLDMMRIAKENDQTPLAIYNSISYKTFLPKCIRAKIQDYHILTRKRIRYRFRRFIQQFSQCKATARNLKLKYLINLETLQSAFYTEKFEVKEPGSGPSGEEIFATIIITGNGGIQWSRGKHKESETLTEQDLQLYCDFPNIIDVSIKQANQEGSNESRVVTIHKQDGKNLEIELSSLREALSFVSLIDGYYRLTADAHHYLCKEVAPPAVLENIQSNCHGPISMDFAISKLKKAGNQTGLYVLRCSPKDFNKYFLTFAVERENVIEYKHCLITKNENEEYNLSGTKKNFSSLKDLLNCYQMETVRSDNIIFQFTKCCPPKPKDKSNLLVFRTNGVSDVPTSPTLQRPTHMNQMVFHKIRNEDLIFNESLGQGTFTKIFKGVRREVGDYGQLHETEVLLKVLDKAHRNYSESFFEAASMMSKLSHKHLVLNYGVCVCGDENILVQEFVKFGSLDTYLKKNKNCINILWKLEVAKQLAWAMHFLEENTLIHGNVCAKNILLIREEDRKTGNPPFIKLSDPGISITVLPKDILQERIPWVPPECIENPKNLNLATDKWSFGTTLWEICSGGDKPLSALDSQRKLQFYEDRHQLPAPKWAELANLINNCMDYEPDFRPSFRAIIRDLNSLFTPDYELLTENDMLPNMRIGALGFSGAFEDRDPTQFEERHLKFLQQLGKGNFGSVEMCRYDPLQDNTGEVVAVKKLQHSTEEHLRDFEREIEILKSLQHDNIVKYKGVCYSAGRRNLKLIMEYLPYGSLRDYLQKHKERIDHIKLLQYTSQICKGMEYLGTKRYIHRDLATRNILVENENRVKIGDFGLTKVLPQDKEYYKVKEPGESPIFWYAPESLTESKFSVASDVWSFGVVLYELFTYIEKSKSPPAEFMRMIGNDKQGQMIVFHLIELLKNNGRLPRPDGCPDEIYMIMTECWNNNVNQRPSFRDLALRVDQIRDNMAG

- IC50: > 100 nM
Compound: CC(C)(C#N)N1CCN(c2ccc(Nc3nc(N4CCCCCC4)nc4cn[nH]c(=O)c34)cc2)CC1
